Where “and” joins values, the source holds several entries; their conditions need not be identical. Equal entries are not always repeated. Toxic doses and inconclusive results are not listed.
Tested on: P388 leukemia ip, CD2F1 mice, survival T/C
Assay: NCI In Vivo Anticancer Drug Screen. Data for tumor model P388 Leukemia (intraperitoneal) in CD2F1 (CDF1) mice
Settings: endpoint: median survival time, higher = longer survival
Outline: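 Mice carrying the transplanted tumor received test compound or vehicle. Survival was recorded in each group, and the value is the treated-group measurement divided by that of the vehicle-treated control group.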

[1] = dose: 100.0 mg/kg/injection, schedule: Q04DX003 (ip), vehicle: saline
[2] = dose: 200.0 mg/kg/injection, schedule: Q04DX003 (ip), vehicle: saline
[3] = dose: 400.0 mg/kg/injection, schedule: Q04DX003 (ip), vehicle: saline
[4] = dose: 100.0 mg/kg/injection, schedule: Q01DX009 (ip), vehicle: Klucel (hydroxypropylcellulose) (HPC)
[5] = dose: 200.0 mg/kg/injection, schedule: Q01DX009 (ip), vehicle: Klucel (hydroxypropylcellulose) (HPC)
[6] = dose: 50.0 mg/kg/injection, schedule: Q01DX009 (ip), vehicle: Klucel (hydroxypropylcellulose) (HPC)
[7] = dose: 60.0 mg/kg/injection, schedule: Q01DX005 (ip), vehicle: saline with Tween-80
[8] = dose: 120.0 mg/kg/injection, schedule: Q01DX005 (ip), vehicle: saline with Tween-80
[9] = dose: 240.0 mg/kg/injection, schedule: Q01DX005 (ip), vehicle: saline with Tween-80
[10] = dose: 15.0 mg/kg/injection, schedule: Q01DX005 (ip), vehicle: saline with Tween-80

In the case of `Nc1ncnc2c1ncn2C1OC(CO)CC1O` (stereo not drawn), the T/C (dose: 9.37 mg/kg/injection, schedule: Q01DX009 (ip), vehicle: Klucel (hydroxypropylcellulose) (HPC)) is reported as 109 % of control, the T/C (dose: 18.75 mg/kg/injection, schedule: Q01DX009 (ip), vehicle: Klucel (hydroxypropylcellulose) (HPC)) is reported as 104 % of control and the T/C (dose: 37.5 mg/kg/injection, schedule: Q01DX009 (ip), vehicle: Klucel (hydroxypropylcellulose) (HPC)) is reported as 110 % of control. For the same compound, the T/C (dose: 75.0 mg/kg/injection, schedule: Q01DX009 (ip), vehicle: Klucel (hydroxypropylcellulose) (HPC)) was 112 % of control.
For `CS(=O)CC1=NC(=N)N=C1CS(C)=O` (stereo not drawn), the T/C (dose: 60.0 mg/kg/injection, schedule: Q01DX005 (ip), vehicle: saline) was 100 % of control, the T/C (dose: 120.0 mg/kg/injection, schedule: Q01DX005 (ip), vehicle: saline) was 102 % of control and the T/C (dose: 240.0 mg/kg/injection, schedule: Q01DX005 (ip), vehicle: saline) was 100 % of control.
In the case of `CCCCCCCCCCCCCCC(Cl)C/[N+]([O-])=[N+](/[O-])CC(Cl)CCCCCCCCCCCCCC` (stereo not drawn), the T/C [1] is reported as 92 % of control, the T/C [2] is reported as 92 % of control and the T/C [3] is reported as 92 % of control.
For `O=[N+]([O-])c1ccccc1CSc1ncnc2nc[nH]c12`, the T/C (dose: 50.0 mg/kg/injection, schedule: Q04DX003 (ip), vehicle: saline with Tween-80) was 95 % of control, the T/C (dose: 100.0 mg/kg/injection, schedule: Q01DX009 (ip), vehicle: saline with Tween-80) was 90 % of control and the T/C (dose: 100.0 mg/kg/injection, schedule: Q04DX003 (ip), vehicle: saline with Tween-80) was 109 % of control. The T/C (dose: 200.0 mg/kg/injection, schedule: Q01DX009 (ip), vehicle: saline with Tween-80) was 100 % of control, the T/C (dose: 200.0 mg/kg/injection, schedule: Q04DX003 (ip), vehicle: saline with Tween-80) was 104 % of control and the T/C (dose: 400.0 mg/kg/injection, schedule: Q01DX009 (ip), vehicle: saline with Tween-80) was 118 % of control.
With `CC1C=CCC(C)(C)C1` (stereo not drawn) the T/C [4] was 101 % of control, the T/C [1] was 88 % of control and the T/C [5] was 106 % of control. The T/C [2] was 96 % of control and the T/C [3] was 92 % of control.
For `FC(F)(F)C1(C(F)(F)F)OS2(OC1(C(F)(F)F)C(F)(F)F)OC(C(F)(F)F)(C(F)(F)F)C(C(F)(F)F)(C(F)(F)F)O2`, the T/C (dose: 100.0 mg/kg/injection, schedule: Q04DX003 (ip), vehicle: Klucel (hydroxypropylcellulose) (HPC)) was 91 % of control, the T/C (dose: 200.0 mg/kg/injection, schedule: Q04DX003 (ip), vehicle: Klucel (hydroxypropylcellulose) (HPC)) was 91 % of control and the T/C (dose: 400.0 mg/kg/injection, schedule: Q04DX003 (ip), vehicle: Klucel (hydroxypropylcellulose) (HPC)) was 105 % of control.
With `O=C(N1CCCCCC1)N1CC1` the T/C [6] was 93 % of control and the T/C [4] was 118 % of control.
For `CCn1c2ccc(N(C)C)cc2c2cc(N(C)C)ccc21`, the T/C [7] was 99 % of control, the T/C [8] was 105 % of control and the T/C [9] was 102 % of control.
In the case of `CN(C)CCCSc1c2ccccc2nc2cccc([N+](=O)[O-])c12`, the T/C [7] is reported as 94 % of control and the T/C [8] is reported as 106 % of control.
For `O=C(O)C1CC2c3ccccc3C1([N+](=O)[O-])c1ccccc12` (stereo not drawn), the T/C [7] was 101 % of control, the T/C [8] was 104 % of control and the T/C [9] was 109 % of control.
For `Cc1c/c(=N\O)c2c(=O)c([N+](=O)[O-])coc2n1O`, the T/C [6] was 100 % of control, the T/C [4] was 100 % of control and the T/C [5] was 97 % of control.
`O=C1CCCC2=C1C(c1ccc(Cl)c(Cl)c1)C1=C(CCCC1=O)O2` was tested, and the T/C [7] was 95 % of control, the T/C [8] was 95 % of control and the T/C [9] was 94 % of control.
For `CNC(=O)OCc1c(COC(=O)NC)c(-c2ccsc2)n2c1CCC2`, the T/C [10] was 118 % of control and the T/C [7] was 119 % of control and 124 % of control.
With `CCc1nc(N)nc(N)c1-c1ccc([N+](=O)[O-])cc1` the T/C (dose: 50.0 mg/kg/injection, schedule: Q01DX005 (ip), vehicle: saline with Tween-80) was 108 % of control and the T/C (dose: 100.0 mg/kg/injection, schedule: Q01DX005 (ip), vehicle: saline with Tween-80) was 108 % of control.
`[CH3][Sn]([CH3])([Cl])[S]CCN` was tested, and the T/C (dose: 0.78 mg/kg/injection, schedule: Q01DX009 (ip), vehicle: saline) was 99 % of control, the T/C (dose: 1.56 mg/kg/injection, schedule: Q01DX009 (ip), vehicle: saline) was 105 % of control and the T/C (dose: 3.12 mg/kg/injection, schedule: Q01DX009 (ip), vehicle: saline) was 123 % of control. The T/C (dose: 6.25 mg/kg/injection, schedule: Q01DX009 (ip), vehicle: saline) was 120 % of control.
With `BrC1C2CCC3OC3C12` (stereo not drawn) the T/C [7] was 104 % of control and the T/C [8] was 103 % of control.
`CN(N=C1C(N)=NN=C1N)c1ccccc1` was tested, and the T/C (dose: 50.0 mg/kg/injection, schedule: Q04DX002 (ip), vehicle: saline with Tween-80) was 106 % of control, the T/C (dose: 100.0 mg/kg/injection, schedule: Q04DX002 (ip), vehicle: saline with Tween-80) was 93 % of control and the T/C (dose: 200.0 mg/kg/injection, schedule: Q04DX002 (ip), vehicle: saline with Tween-80) was 100 % of control.
For `O=c1n(CC2CO2)c(=O)n(CC2CO2)c(=O)n1CC1CO1` (stereo not drawn), the T/C (dose: 6.25 mg/kg/injection, schedule: Q01DX009 (ip), vehicle: suspension in saline) was 203 % of control and 172 % of control, the T/C (dose: 12.5 mg/kg/injection, schedule: Q01DX009 (ip), vehicle: saline) was 165 % of control and 186 % of control and the T/C (dose: 12.5 mg/kg/injection, schedule: Q01DX009 (ip), vehicle: suspension in saline) was 197 % of control and 216 % of control. For the same compound, the T/C [10] was 200 % of control, the T/C (dose: 15.0 mg/kg/injection, schedule: Q01DX005 (ip), vehicle: saline) was 161 % of control and the T/C (dose: 20.0 mg/kg/injection, schedule: Q01DX009 (ip), vehicle: saline) was 313 % of control. The T/C (dose: 20.0 mg/kg/injection, schedule: Q01DX009 (sc), vehicle: saline) was 172 % of control and 220 % of control, the T/C (dose: 25.0 mg/kg/injection, schedule: Q01DX009 (ip), vehicle: saline) was 167 % of control and 205 % of control and the T/C (dose: 25.0 mg/kg/injection, schedule: Q01DX009 (ip), vehicle: suspension in saline) was 226 % of control and 281 % of control. For the same compound, the T/C (dose: 25.0 mg/kg/injection, schedule: Q01DX009 (sc), vehicle: saline) was 157 % of control and 265 % of control, the T/C (dose: 30.0 mg/kg/injection, schedule: Q01DX005 (ip), vehicle: saline) was 192 % of control and the T/C (dose: 30.0 mg/kg/injection, schedule: Q01DX009 (ip), vehicle: saline) was 272 % of control and 290 % of control and 316 % of control. For the same compound, the T/C (dose: 30.0 mg/kg/injection, schedule: Q01DX009 (sc), vehicle: saline) was 161 % of control and 247 % of control, the T/C (dose: 40.0 mg/kg/injection, schedule: Q01DX009 (sc), vehicle: saline) was 277 % of control and the T/C (dose: 40.0 mg/kg/injection, schedule: Q04DX003 (ip), vehicle: saline) was 184 % of control and 188 % of control and 218 % of control. For the same compound, the T/C (dose: 50.0 mg/kg/injection, schedule: Q01DX009 (ip), vehicle: saline) was 200 % of control [middle of 5 runs], the T/C (dose: 50.0 mg/kg/injection, schedule: Q01DX009 (ip), vehicle: suspension in saline) was 100 % of control and the T/C (dose: 50.0 mg/kg/injection, schedule: Q04DX003 (ip), vehicle: saline) was 206 % of control and 217 % of control and 290 % of control. The T/C (dose: 60.0 mg/kg/injection, schedule: Q01DX001 (ip), vehicle: other) was 262 % of control and 271 % of control, the T/C (dose: 60.0 mg/kg/injection, schedule: Q01DX001 (ip), vehicle: saline) was 271 % of control and the T/C (dose: 60.0 mg/kg/injection, schedule: Q01DX001 (ip), vehicle: water) was 260 % of control. For the same compound, the T/C (dose: 60.0 mg/kg/injection, schedule: Q04DX003 (ip), vehicle: saline) was 233 % of control and 245 % of control and 300 % of control, the T/C (dose: 70.0 mg/kg/injection, schedule: Q01DX001 (ip), vehicle: other) was 231 % of control and 281 % of control and the T/C (dose: 70.0 mg/kg/injection, schedule: Q01DX001 (ip), vehicle: saline) was 274 % of control. For the same compound, the T/C (dose: 70.0 mg/kg/injection, schedule: Q01DX001 (ip), vehicle: water) was 184 % of control, the T/C (dose: 80.0 mg/kg/injection, schedule: Q01DX001 (ip), vehicle: other) was 291 % of control and 349 % of control and the T/C (dose: 80.0 mg/kg/injection, schedule: Q01DX001 (ip), vehicle: saline) was 291 % of control. The T/C (dose: 80.0 mg/kg/injection, schedule: Q01DX001 (ip), vehicle: water) was 223 % of control, the T/C (dose: 90.0 mg/kg/injection, schedule: Q01DX001 (ip), vehicle: saline) was 420 % of control and the T/C (dose: 100.0 mg/kg/injection, schedule: Q01DX001 (ip), vehicle: saline) was 210 % of control. For the same compound, the T/C (dose: 100.0 mg/kg/injection, schedule: Q01DX009 (ip), vehicle: saline) was 285 % of control and 156 % of control and 228 % of control and the T/C (dose: 200.0 mg/kg/injection, schedule: Q01DX009 (ip), vehicle: saline) was 107 % of control.
With `CCOC(=O)C(=O)N(CCCNc1c2ccccc2nc2c(OC)cccc12)CCCNc1c2ccccc2nc2c(OC)cccc12` the T/C (dose: 1.25 mg/kg/injection, schedule: Q01DX009 (ip), vehicle: water) was 120 % of control, the T/C (dose: 2.5 mg/kg/injection, schedule: Q01DX009 (ip), vehicle: water) was 120 % of control and the T/C (dose: 10.0 mg/kg/injection, schedule: Q01DX009 (ip), vehicle: water) was 161 % of control.

From PubChem BioAssay AID330 (DTP/NCI, 2004)
